Reference: patent publication US20250154163A1, “Pyrimidinone-Containing 17-Beta-Hydroxysteroid Dehydrogenase Type 13 Inhibitors” (ENANTA PHARMACEUTICALS, INC., priority 2023, published 2025)
pIC50: −log10 of the molar value.

Target: T1, human HSD17β13 (stable HEK293T cell line overexpressing human HSD17β13) (Homo sapiens, UniProt Q7Z5P4)
T1 construct: expressed in transfected cells
T1 sequence (Q7Z5P4 20-300): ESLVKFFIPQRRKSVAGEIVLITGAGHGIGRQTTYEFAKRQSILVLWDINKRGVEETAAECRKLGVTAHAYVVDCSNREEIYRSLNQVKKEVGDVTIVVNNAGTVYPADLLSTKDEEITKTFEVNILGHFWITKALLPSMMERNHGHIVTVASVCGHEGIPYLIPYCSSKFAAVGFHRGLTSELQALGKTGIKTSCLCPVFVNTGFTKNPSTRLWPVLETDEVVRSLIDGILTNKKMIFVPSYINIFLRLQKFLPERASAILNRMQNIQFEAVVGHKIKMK
Assay: HSD17β13 inhibitor cell-based screening assay (conversion of estradiol-d2 to estrone-d2 by RF-MS)
Details: conversion of estradiol-d2 to estrone-d2 after 24 hours
Procedure: The purpose of this cell-based assay is to determine the cellular efficacy (IC50) of HSD17β13 inhibitors in a stable HEK293 T cell line overexpressing human HSD17β13. The assay measures by Rapid Fire mass-spectrometry (RF-MS) the conversion of estradiol-d2 to estrone-d2. Cytotoxicity was also assessed via luminescent signal generated by the ATPlite viability assay reagent. To screen compounds for HSD17013 inhibition, black 384-well plates were seeded with 1000× concentration of compounds in a 9-point 1:3 dilution curve (final top concentration of 10 μM) as well as 1000× concentration of 17β-estradiol-d2 (5 μM final concentration) added to all wells. HEK293T cells stably overexpressing human HSD17013 and the parent HEK293T cell lines were then seeded in the plates on top of the compounds and substrate in MEM media containing 1% charcoal/dextran-treated FBS. Supernatant is collected and immediately frozen after 24 hours of incubation, and conversion of estradiol-d2 to estrone-d2 is measured at Pure Honey by RF-MS. The remaining media in the plate was removed from the wells and replaced with ATPlite viability assay reagent. Luminescent signal from the ATPlite reagent was measured on the Envision plate reader. 10 μL of 10 mM compounds stocks (1000×) dissolved in DMSO were pipetted into the appropriate wells on the 384 LDV plate (Labcyte; cat. no.: LP-0200) and the appropriate volumes of DMSO solvent were included onto an intermediate plate to further dilute the compound stocks to complete the 9-pt dose curve (final top concentration of 10 μM). 10 μL per well of 5 mM estradiol-d2 (1000×) (Cayman; item no.: 9002846) (5 μM final concentration) dissolved in DMSO was seeded into the appropriate number of wells on the same source plate as the compounds. The Echo 650 (Labcyte) was used for compound dilutions and dispensing both the compounds and the substrate onto a dry 384-well black assay plate (Falcon/Corning; cat. no.:353962). Afterwards, cells were immediately counted and seeded onto the plate. Cells were cultured for expansion in EMEM (ATCC; cat. no.: 30-2003)+10% FBS (Hyclone; cat. no.: SH3007003)+1×PenStrep (Gibco; cat. no.: 15140-122). All media for stable cell line overexpressing HSD17013 also included […] zeocin (Invitrogen; cat. no.: 46-0509) for selection. To prepare cells for seeding into the 384-well assay plate, cells were trypsinized for 3 minutes in the incubator. The Trypsin-EDTA (0.25%) (Gibco; cat. no.: 25200056) was neutralized with EMEM complete culture medium warmed to 37° C. Cells were then centrifugated at 300×g for 5 minutes at room temperature. The cell pellet was resuspended in phenol red-free MEM (Gibco; cat. no.: 51200-038)+1% charcoal/dextran-treated FBS (Hyclone; cat. no.: SH3006803) and 1×PenStrep warmed to 37° C. Cells were then counted using the TC20 automated cell-counter (Bio-Rad) and disposable duel chamber counting slides (Bio-Rad; cat. no.: 1450016) for a cell density of 1.5E5 cells/mL to then seed into the assay plate at 7.5E3 cells/well with 50 μL of media per well. Prior to the 24-hour time point, a solution of 1% formic acid (10×) (Honeywell; cat. no.: 94318) in MEM phenol red-free MEM+1% charcoal/dextran-treated FBS and 1×PenStrep was made. ATPlite luminescent ATP detection reagent (PerkinElmer; cat. no.: 6016739) was prepared according to the manufacturer's instructions. A new 384-well Falcon plate (collection plate) was seeded with 2 μL per well of 10× formic acid and then 18 μL of cell supernatant was added onto the formic acid, resulting in a 20 μL per well solution of 0.1% formic acid (1×) in supernatant. The plate of collected supernatant was immediately frozen on dry ice before being stored at −80° C. The collection plate was shipped to Momentum Biotechnologies for analysis. The remaining supernatant in the assay plate was discarded and 25 μL of ATPlite reagent was added to each well. […]

## CS(=O)(=O)c1ccc(-c2nc3sc4c(O)c(Cl)ccc4c3c(=O)n2Cc2cnco2)c(C2CC2)c1 [Example 80]
  pIC50: > 7.00

## O=c1c2c(nc(-c3cc(F)c(C(F)F)cc3C3CC3)n1Cc1cnco1)sc1c(O)c(Cl)ccc12 [Example 141]
  pIC50: > 7.00

## O=c1c2c(nc(-c3cc(F)c(F)cc3C3CC3)n1Cc1cnc(C(F)(F)F)nc1)sc1c(O)c(F)ccc12 [Example 183]
  pIC50: > 7.00

## O=c1c2c(nc(-c3cc(F)c(F)cc3C3CC3)n1Cc1cnn(C(F)(F)F)c1)sc1c(O)c(Cl)ccc12 [Example 211]
  pIC50: > 7.00

## N#Cc1ccc(-c2nc3sc4c(O)c(Cl)ccc4c3c(=O)n2Cc2cc(C(F)(F)F)no2)c(C2CC2)c1 [Example 98]
  pIC50: > 7.00

## COc1ccc(-c2nc3sc4c(O)c(Cl)ccc4c3c(=O)n2Cc2cncn2C)c(C2CC2)c1 [Example 193]
  pIC50: > 7.00

## O=c1c2c(nc(-c3cc(F)c(Cl)cc3C3CC3)n1Cc1cc(C(F)(F)F)no1)sc1c(O)c(Cl)ccc12 [Example 84]
  pIC50: > 7.00

## O=c1c2c(nc(-c3cc(F)c(F)cc3C3CC3)n1Cc1cn[nH]c1)sc1c(O)c(Cl)ccc12 [Example 215]
  pIC50: > 7.00

## COc1ccc(-c2nc3sc4c(O)c(Cl)ccc4c3c(=O)n2CC(=O)NCCO)c(C2CC2)c1 [Example 51, 2-(7-chloro-2-(2-cyclopropyl-4-methoxyphenyl)-8-hydroxy-4-oxobenzo[4,5]thieno[2,3-d]pyrimidin-3(4H)-yl)-N-(2-hydroxyethyl)acetamide]
  pIC50: 6.00 to 6.30

## O=c1c2c(nc(-c3cnc(C(F)(F)F)cc3C3CC3)n1Cc1cnco1)sc1c(O)c(Cl)ccc12 [Example 204]
  pIC50: > 7.00

## COc1ccc(-c2nc3sc4c(O)c(Cl)ccc4c3c(=O)n2CC(=O)O)c(C2CC2)c1 [Example 46, 2-(7-chloro-2-(2-cyclopropyl-4-methoxyphenyl)-8-hydroxy-4-oxobenzo[4,5]thieno[2,3-d]pyrimidin-3(4H)-yl)acetic acid]
  pIC50: 4.00 to 6.00

## COCc1cc(Cn2c(-c3cc(F)c(F)cc3C3CC3)nc3sc4c(O)c(Cl)ccc4c3c2=O)on1 [Example 208]
  pIC50: > 7.00

## Cc1cc(C2CC2)c(-c2nc3sc4c(O)c(Cl)ccc4c3c(=O)n2Cc2cnco2)s1 [Example 94]
  pIC50: > 7.00

## O=c1c2c(nc(-c3ncc(F)cc3C3CC3)n1Cc1cnc(C(F)(F)F)nc1)sc1c(O)c(Cl)ccc12 [Example 101]
  pIC50: > 7.00

## N#Cc1ncc(Cn2c(-c3cc(F)c(F)cc3C3CC3)nc3sc4c(O)c(Cl)ccc4c3c2=O)s1 [Example 210]
  pIC50: > 7.00

## O=c1c2c(nc(-c3ccccc3C3CC3)n1Cc1cnco1)sc1c(O)c(Cl)ccc12 [Example 87]
  pIC50: > 7.00

## COc1ccc(-c2nc3sc4c(O)c(Cl)ccc4c3c(=O)n2CCCc2cnco2)c(C2CC2)c1 [Example 189]
  pIC50: > 7.00

## Cn1ncc2cc(-c3nc4sc5c(O)c(Cl)ccc5c4c(=O)n3Cc3cnco3)c(C3CC3)cc21 [Example 142]
  pIC50: > 7.00

## COC(=O)Cn1c(-c2ccc(OC)cc2C2CC2)nc2sc3c(O)c(Cl)ccc3c2c1=O [Example 45, methyl 2-(7-chloro-2-(2-cyclopropyl-4-methoxyphenyl)-8-hydroxy-4-oxobenzo[4,5]thieno[2,3-d]pyrimidin-3(4H)-yl)acetate]
  pIC50: 6.30 to 7.00

## COc1ccc(-c2nc3sc4c(O)c(Cl)cc(C)c4c3c(=O)n2Cc2cnco2)c(C2CC2)c1 [Example 221]
  pIC50: 6.30 to 7.00

## Cn1cc(Cn2c(-c3ccc(C(F)F)cc3C3CC3)nc3sc4c(O)c(Cl)ccc4c3c2=O)ccc1=O [Example 186]
  pIC50: > 7.00

## O=c1c2c(nc(-c3ncc(C(F)F)cc3C3CC3)n1Cc1cnc(C(F)(F)F)nc1)sc1c(O)c(Cl)ccc12 [Example 116, 7-chloro-2-(3-cyclopropyl-5-(difluoromethyl)pyridin-2-yl)-8-hydroxy-3-((2-(trifluoromethyl)pyrimidin-5-yl)methyl)benzo[4,5]thieno[2,3-d]pyrimidin-4(3H)-one]
  pIC50: > 7.00

## COc1cc(C2CC2)c(-c2nc3sc4c(O)c(Cl)ccc4c3c(=O)n2Cc2cnco2)cc1C1CC1 [Example 107, 7-chloro-2-(2,5-dicyclopropyl-4-methoxyphenyl)-8-hydroxy-3-(oxazol-5-ylmethyl)benzo[4,5]thieno[2,3-d]pyrimidin-4(3H)-one]
  pIC50: 6.30 to 7.00

## COc1ccc(-c2nc3sc4c(O)c(F)ccc4c3c(=O)n2Cc2cnco2)c(C2CC2)c1 [Example 56, 2-(2-cyclopropyl-4-methoxyphenyl)-7-fluoro-8-hydroxy-3-(oxazol-5-ylmethyl)benzo[4,5]thieno[2,3-d]pyrimidin-4(3H)-one]
  pIC50: > 7.00

## COc1ccc(-c2nc3sc4c(O)ccc(F)c4c3c(=O)n2Cc2cnco2)c(C2CC2)c1 [Example 55, 2-(2-cyclopropyl-4-methoxyphenyl)-5-fluoro-8-hydroxy-3-(oxazol-5-ylmethyl)benzo[4,5]thieno[2,3-d]pyrimidin-4(3H)-one]
  pIC50: > 7.00

## O=c1c2c(nc(-c3cc(F)c(F)cc3C3CC3)n1Cc1cc(Br)no1)sc1c(O)c(Cl)ccc12 [Example 165]
  pIC50: > 7.00

## O=c1c2c(nc(-c3cccc(C(F)(F)F)c3C3CC3)n1Cc1cnco1)sc1c(O)c(Cl)ccc12 [Example 139]
  pIC50: > 7.00

## O=c1c2c(nc(-c3cc(F)c(F)cc3C3CC3)n1Cc1cccnc1)sc1c(O)c(Cl)ccc12 [Example 163]
  pIC50: > 7.00

## COc1ccc(-c2nc3sc4c(O)c(Cl)ccc4c3c(=O)n2Cc2cnc(C(F)(F)F)s2)c(C2CC2)c1 [Example 198]
  pIC50: > 7.00

## O=c1c2c(nc(-c3cc(F)c(C(F)F)cc3C3CC3)n1Cc1ccc(C(F)(F)F)nc1)sc1c(O)c(Cl)ccc12 [Example 181]
  pIC50: > 7.00

## O=c1c2c(nc(-c3ccc(C(F)(F)F)nc3C3CC3)n1Cc1ccc(C(F)(F)F)nc1)sc1c(O)c(Cl)ccc12 [Example 68, 7-chloro-2-(2-cyclopropyl-6-(trifluoromethyl)pyridin-3-yl)-8-hydroxy-3-((6-(trifluoromethyl)pyridin-3-yl)methyl)benzo[4,5]thieno[2,3-d]pyrimidin-4(3H)-one]
  pIC50: > 7.00

## COc1ccc(-c2nc3sc4c(O)c(-c5ccccc5)ccc4c3c(=O)n2Cc2cnco2)c(C2CC2)c1 [Example 35, 2-(2-cyclopropyl-4-methoxyphenyl)-8-hydroxy-3-(oxazol-5-ylmethyl)-7-phenylbenzo[4,5]thieno[2,3-d]pyrimidin-4(3H)-one]
  pIC50: 4.00 to 6.00

## COc1ccc(-c2nc3sc4c(O)c(Cl)ccc4c3c(=O)n2Cc2cnco2)c(C(C)(C)C)c1 [Example 128]
  pIC50: 6.00 to 6.30

## COc1cc(C2CC2)c(-c2nc3sc4c(O)c(Cl)ccc4c3c(=O)n2Cc2cnco2)cc1C1CCCC1 [Example 109, 7-chloro-2-(5-cyclopentyl-2-cyclopropyl-4-methoxyphenyl)-8-hydroxy-3-(oxazol-5-ylmethyl)benzo[4,5]thieno[2,3-d]pyrimidin-4(3H)-one]
  pIC50: 6.00 to 6.30

## O=c1c2c(nc(-c3ncc(C(F)(F)F)cc3C3CC3)n1Cc1cnco1)sc1c(O)c(Cl)ccc12 [Example 90]
  pIC50: > 7.00

## COc1ccc(C2=Nc3sc4c(O)c(Cl)ccc4c3C(=O)C2Cc2ccc(=O)[nH]c2)c(C2CC2)c1 (stereo not drawn) [Example 161]
  pIC50: > 7.00
